Key:
K. pneumoniae KL 140 = assay: β-Lactamase inhibition activity against resistant bacteria (MIC of ceftazidime without and with Ia); type: cell-based; conditions: Klebsiella pneumoniae, KL140, enzyme CAZ-ase, read-out: MIC, CAZ alone
E. cloacae EB 131 = assay: as above; type: cell-based; conditions: Enterobacter cloacae, EB131, enzyme Type 1 Ceph'ase, read-out: MIC, CAZ alone
E. coli EC 227 = assay: as above; type: cell-based; conditions: Escherichia coli, EC227, enzyme CAZ-ase, read-out: MIC, CAZ alone
K. pneumoniae KL 141 = assay: as above; type: cell-based; conditions: Klebsiella pneumoniae, KL141, enzyme CAZ-ase, read-out: MIC, CAZ alone
E. coli EC 228 = assay: as above; type: cell-based; conditions: Escherichia coli, EC228, enzyme CAZ-ase, read-out: MIC, CAZ alone
E. coli EC 225 = assay: as above; type: cell-based; conditions: Escherichia coli, EC225, enzyme TEM-5, read-out: MIC, CAZ alone
[1] = Stability in phosphate buffer (half-life of hydrolysis, UV method); type: physicochemical; conditions: for half-life: physiological phosphate buffer pH 7.4 and 37° C., UV method
[2] = biological target: T1, β-Lactamase from Enterobacter cloacae (Enterobacter cloacae, UniProt P05364); assay: β-Lactamase inhibition against isolated (cell free) enzymes, nitrocefin method; type: biochemical; conditions: 37° C., 15 min preincubation of enzyme and inhibitor
T1 construct: bacterial β-lactamases isolated from Enterobacter cloacae and Escherichia coli; host or cells: Enterobacter cloacae (enzyme isolated, cell free)
Description: (§1) Moreover, all tested ceftazidime resistant Gram-negative pathogens became susceptible to a combination of ceftazidime and the compounds according to the invention. Thus, these compounds are also very potent β-lactamase inhibitors. The very high activity as β-lactamase inhibitors of the compounds I according to the invention was also observed with isolated bacterial enzymes in the nitrocefin test (R. Reimer, Methodicum Chimicum: Antibiotics, Vitamins and Hormons; F. Korte, M. Goto, eds., Thieme, Stuttgart, 1977, p.11, E. Wasielewski, Arzneimittel, Vol. 4; Chemotherapeutica, Part 1, Verlag Chemie, Weinheim 1972).
(§2) IC50 values were determined in a 1 cm UV cell at 37° C. after a 15 min preincubation period of enzyme and the inhibitor.

[3] = biological target: T2, Penicillinase from E. coli TEM 1 (Escherichia coli, UniProt P62593); assay: as above; type: biochemical
T2 construct: bacterial β-lactamases isolated from Enterobacter cloacae and Escherichia coli; host or cells: Escherichia coli (enzyme isolated, cell free)
Description: as §1, §2

[4] = Oral activity: plasma level and half-life in mice after oral application; type: in vivo; conditions: mouse, dose 25 mg per kg, potassium salt
Staph. aureus DSM 1104 = assay: In vitro antibacterial activity, plate test (inhibition diameter); type: cell-based; conditions: 10 μg, Difco Nutrient Agar, 18 hrs at 37° C.
Method: (§3) The tests were carried out in sterile polypropylene dishes (diameter 8.5 cm) containing 10 ml of Difco Nutrient Agar. Inhibition was recorded after 18 hrs at 37° C. (inoculum ca. […] cells).

Staph. aureus resistant = assay: as above; type: cell-based; conditions: 10 μg, Difco Nutrient Agar, 18 hrs at 37° C.
Method: as §3

Staph. aureus Innsbruck = assay: as above; type: cell-based; conditions: 10 μg, Difco Nutrient Agar, 18 hrs at 37° C.
Method: as §3

Escherichia coli TEM 1 = assay: as above; type: cell-based; conditions: 10 μg, Difco Nutrient Agar, 18 hrs at 37° C.
Method: as §3

Enterococcus = assay: as above; type: cell-based; conditions: 10 μg, Difco Nutrient Agar, 18 hrs at 37° C.
Method: as §3

Staph. aureus 25768 = assay: as above; type: cell-based; conditions: 10 μg, Difco Nutrient Agar, 18 hrs at 37° C.
Method: as §3

[5] = test system: Escherichia coli DSM 1103; assay: as above; type: cell-based; conditions: 10 μg, Difco Nutrient Agar, 18 hrs at 37° C.
Method: as §3

[6] = test system: Enterobacter cloacae DSM 30054; assay: as above; type: cell-based; conditions: 10 μg, Difco Nutrient Agar, 18 hrs at 37° C.
Method: as §3

Sacharomyces cerevisiae = assay: Cytotoxicity, agar diffusion method; type: cell-based; conditions: 1.0 mg, yeast and mold agar, 16 hrs at 30° C.
Method: Sterile PP dishes of 8.5 cm diameter containing 10 ml of yeast and mold agar were used. Cytotoxicity was recorded after a 16 hrs incubation period at 30° C. (inoculum approx. 10^5 cells).

[7] = test system: Pseudomonas aer. DSM 1117; assay: In vitro antibacterial activity, plate test (inhibition diameter); type: cell-based, Pseudomonas aeruginosa; conditions: 10 μg, Difco Nutrient Agar, 18 hrs at 37° C.
Method: as §3

[8] = test system: Pseudomonas aer. resistant; assay: as above; type: cell-based, Pseudomonas aeruginosa; conditions: 10 μg, Difco Nutrient Agar, 18 hrs at 37° C.
Method: as §3

T2 sequence (P62593 24-286 limits assumed): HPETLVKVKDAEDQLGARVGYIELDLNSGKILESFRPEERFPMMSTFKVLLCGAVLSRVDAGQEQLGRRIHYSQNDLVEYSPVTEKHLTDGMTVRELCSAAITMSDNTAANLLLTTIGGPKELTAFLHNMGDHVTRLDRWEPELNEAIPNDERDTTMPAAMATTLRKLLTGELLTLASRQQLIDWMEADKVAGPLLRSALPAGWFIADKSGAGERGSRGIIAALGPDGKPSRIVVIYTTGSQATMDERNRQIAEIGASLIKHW
T1 sequence (P05364 21-381): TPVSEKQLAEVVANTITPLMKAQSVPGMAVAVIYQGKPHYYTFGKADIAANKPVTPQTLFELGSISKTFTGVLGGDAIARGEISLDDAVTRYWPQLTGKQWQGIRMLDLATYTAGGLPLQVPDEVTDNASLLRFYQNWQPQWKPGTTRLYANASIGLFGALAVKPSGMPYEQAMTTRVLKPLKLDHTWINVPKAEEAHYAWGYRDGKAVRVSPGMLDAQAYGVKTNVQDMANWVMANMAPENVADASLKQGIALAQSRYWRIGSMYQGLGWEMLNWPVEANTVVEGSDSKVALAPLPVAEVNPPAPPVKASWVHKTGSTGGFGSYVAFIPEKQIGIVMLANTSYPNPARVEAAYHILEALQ

SMILES | half-life [1] [h] | IC50 [2] [nM] | IC50 [3] [nM] | inhibition diameter (Staph. aureus DSM 1104) [mm] | inhibition diameter (Staph. aureus resistant) [mm] | inhibition diameter (Staph. aureus Innsbruck) [mm] | inhibition diameter (Escherichia coli TEM 1) [mm] | inhibition diameter (Enterococcus) [mm] | inhibition diameter (Staph. aureus 25768) [mm] | inhibition diameter [5] [mm] | inhibition diameter [6] [mm] | inhibition diameter (cytotoxicity) (Sacharomyces cerevisiae) [mm] | inhibition diameter [7] [mm] | inhibition diameter [8] [mm] | also measured
CC(C)(O/N=C(\C(=O)N[C@@H]1C(=O)N2C(C(=O)[O-])=C(C[n+]3ccccc3)CS[C@H]12)c1csc(N)n1)C(=O)O [CAZ, ceftazidime] |  |  |  |  |  |  |  |  |  |  |  |  |  |  | MIC (K. pneumoniae KL 140): > 64 µg/mL; MIC (E. cloacae EB 131): > 64 µg/mL; MIC (E. coli EC 227): > 64 µg/mL; MIC (K. pneumoniae KL 141): > 64 µg/mL; MIC (E. coli EC 228): 16 µg/mL; MIC (E. coli EC 225): 64 µg/mL
COCSC1=C(C(=O)O)N2C(=O)[C@H]([C@@H](C)O)[C@H]2[C@H]1C [Ia, Potassium (4R,5S,6S)-6-((1′R)-hydroxyethyl)-3-(methoxymethylthio)-4-methyl-7-oxo-1-azabicyclo[3.2.0]hept-2-ene-2-carboxylate] | 50 | 4 | 200 |  |  |  |  |  |  |  |  |  |  |  | concentration at 10 min ([4]; plasma): 5600 ng/mL; half-life ([4]; serum, 25 mg/kg, read-out: Approximative serum half-life): 0.417 h
CC(O)C1C(=O)N2C(C(=O)O)=C(SCOCCN)C(C)C12 (centres unmarked) [Ib] | 50 | 8.5 | 550 | 39 | 35 | 9 | 33 | 21 | 28 | 30 | 26 | 0 | 27 | 17 | 
CC(O)C1C(=O)N2C(C(=O)O)=C(SCOCCNC=N)C(C)C12 [Ic, (4R,5S,6S)-3-((2-(Formimidoylamino)ethoxv)methylthio)-((1′R)-hydroxyethyl)-4-methyl-7-oxo-1-azabicyclo[3.2.0]hept-2-ene-2-carboxylic acid] | 35 |  |  | 39 | 35 | 8 | 33 | 21 | 26 | 30 | 25 |  | 25 | 13 | 
CC(O)C1C(=O)N2C(C(=O)O)=C(SCOC(C)(C)CN)C(C)C12 [Id, (4R,5S,6S)-3-((2-amino-1,1-dimethylethoxy)methylthio)-6-((1′R)-hydroxyethyl)-4-methyl-7-oxo-1-azabicyclo[3.2.0]hept-2-ene-2-carboxylic acid] | 50 |  |  |  |  |  |  |  |  |  |  |  |  |  | 
CC(=O)NCSC1=C(C(=O)O)N2C(=O)[C@H]([C@@H](C)O)[C@H]2[C@H]1C [Ie, Potassium (4R,5S,6S)-3-(acetamidomethylthio)-((1′R)-hydroxyethyl)-4-methyl-7-oxo-1-azabicyclo[3.2.0]hept-2-ene-2-carboxylate] | 40 | 6 | 300 | 36 | 32 |  | 34 | 18 | 27 | 32 | 27 | 0 | 16 |  | 
CC(O)C1C(=O)N2C(C(=O)O)=C(SCNC(=O)CN)C(C)C12 [If, (4R,5S,6S)-3-((2-Aminoacetamido)methylthio-6-((1′R)-hydroxyethyl)-4-methyl-7-oxo-1-azabicyclo[3.2.0]hept-2-ene-2-carboxylic acid] | 16 |  |  | 33 | 30 | 12 | 33 | 20 | 25 | 27 | 23 | 0 | 18 | 14 | 
CCN1CCN(CSC2=C(C(=O)[O-])N3C(=O)[C@H]([C@@H](C)O)[C@H]3[C@H]2C)C(=O)C1=O.[K+] [Ig, Potassium (4R,5S,6S)-3-((2,3-dioxo-4-ethyl-piperazinyl)methylthio)-6-((1′R)-hydroxyethyl)-4-methyl-7-oxo-1-azabicyclo[3.2.0]hept-2-ene-2-carboxylate] |  |  |  |  |  |  |  |  |  |  |  |  |  |  | half-life of hydrolysis ([1]; buffer, pH 7.4): 42 h

Reference: patent publication US20010031749A1, “Novel C-2 S/O-and S/N formaldehyde Acetal Derivatives of Carbapenem-3-carboxylic acids and their use as antibiotics and beta-lactamase inhibitors” (priority 1998, published 2001)
